Test results as given in ChEMBL document CHEMBL5291721, “A preclinical secondary pharmacology resource illuminates target-adverse drug reaction associations of marketed drugs” (Nat Commun, 2023).

Key:
[1] = target: T1, Alpha-1A adrenergic receptor (Homo sapiens, UniProt P35348)
T1 sequence (P35348 whole entry): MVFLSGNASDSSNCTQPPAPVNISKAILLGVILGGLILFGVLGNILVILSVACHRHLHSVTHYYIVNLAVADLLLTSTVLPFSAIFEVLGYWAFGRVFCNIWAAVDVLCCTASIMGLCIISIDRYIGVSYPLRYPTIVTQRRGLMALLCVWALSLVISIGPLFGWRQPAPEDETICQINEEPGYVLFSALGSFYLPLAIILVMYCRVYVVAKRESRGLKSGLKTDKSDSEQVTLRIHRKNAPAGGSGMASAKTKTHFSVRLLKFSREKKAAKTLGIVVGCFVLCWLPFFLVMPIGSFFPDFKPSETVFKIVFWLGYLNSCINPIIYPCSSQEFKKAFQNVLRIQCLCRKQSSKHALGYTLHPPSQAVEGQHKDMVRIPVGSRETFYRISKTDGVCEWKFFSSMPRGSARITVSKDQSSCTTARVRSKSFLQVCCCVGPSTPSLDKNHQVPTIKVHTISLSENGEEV

[2] = target: Beta-1 adrenergic receptor (Homo sapiens, UniProt P08588); format: functional, cell-based
Beta-1 adrenergic receptor, sequence (P08588 whole entry): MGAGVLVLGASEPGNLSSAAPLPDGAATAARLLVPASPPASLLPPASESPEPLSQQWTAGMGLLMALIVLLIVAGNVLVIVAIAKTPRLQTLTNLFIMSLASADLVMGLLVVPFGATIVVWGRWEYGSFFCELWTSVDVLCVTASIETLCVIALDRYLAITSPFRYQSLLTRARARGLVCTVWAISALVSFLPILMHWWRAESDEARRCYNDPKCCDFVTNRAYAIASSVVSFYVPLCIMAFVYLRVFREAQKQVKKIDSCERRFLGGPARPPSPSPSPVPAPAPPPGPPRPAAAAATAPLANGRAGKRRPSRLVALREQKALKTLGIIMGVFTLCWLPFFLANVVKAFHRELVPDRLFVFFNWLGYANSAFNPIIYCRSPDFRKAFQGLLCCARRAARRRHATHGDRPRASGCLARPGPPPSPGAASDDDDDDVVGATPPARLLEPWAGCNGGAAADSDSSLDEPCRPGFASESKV

[3] = target: Gamma-aminobutyric acid type B receptor subunit 1 (Homo sapiens, UniProt Q9UBS5)
Gamma-aminobutyric acid type B receptor subunit 1, sequence (Q9UBS5 whole entry): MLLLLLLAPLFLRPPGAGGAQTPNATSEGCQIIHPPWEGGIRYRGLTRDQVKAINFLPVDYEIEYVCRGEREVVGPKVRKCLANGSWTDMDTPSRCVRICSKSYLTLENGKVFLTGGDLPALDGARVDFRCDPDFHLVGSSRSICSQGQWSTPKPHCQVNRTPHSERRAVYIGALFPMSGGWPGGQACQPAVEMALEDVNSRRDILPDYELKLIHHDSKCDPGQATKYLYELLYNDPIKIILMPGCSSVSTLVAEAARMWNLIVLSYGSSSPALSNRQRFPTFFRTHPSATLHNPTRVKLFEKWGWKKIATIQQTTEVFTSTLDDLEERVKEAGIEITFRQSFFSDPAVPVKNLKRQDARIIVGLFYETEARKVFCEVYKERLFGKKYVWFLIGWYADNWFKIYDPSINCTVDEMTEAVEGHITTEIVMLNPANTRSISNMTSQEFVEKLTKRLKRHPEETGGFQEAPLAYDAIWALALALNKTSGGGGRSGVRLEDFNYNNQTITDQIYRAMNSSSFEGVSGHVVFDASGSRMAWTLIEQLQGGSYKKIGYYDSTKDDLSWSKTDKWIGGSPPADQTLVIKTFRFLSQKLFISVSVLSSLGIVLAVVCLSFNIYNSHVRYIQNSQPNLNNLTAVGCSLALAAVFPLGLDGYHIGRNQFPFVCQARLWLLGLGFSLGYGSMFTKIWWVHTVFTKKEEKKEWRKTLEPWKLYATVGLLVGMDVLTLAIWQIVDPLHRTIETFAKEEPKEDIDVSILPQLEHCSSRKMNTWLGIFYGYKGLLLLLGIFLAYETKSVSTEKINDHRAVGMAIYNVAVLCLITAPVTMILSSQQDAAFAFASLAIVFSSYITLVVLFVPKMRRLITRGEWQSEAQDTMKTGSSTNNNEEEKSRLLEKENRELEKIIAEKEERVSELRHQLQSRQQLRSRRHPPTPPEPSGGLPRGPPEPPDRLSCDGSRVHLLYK

[4] = target: 5-hydroxytryptamine receptor 5A (Homo sapiens, UniProt P47898)
5-hydroxytryptamine receptor 5A, sequence (P47898 whole entry): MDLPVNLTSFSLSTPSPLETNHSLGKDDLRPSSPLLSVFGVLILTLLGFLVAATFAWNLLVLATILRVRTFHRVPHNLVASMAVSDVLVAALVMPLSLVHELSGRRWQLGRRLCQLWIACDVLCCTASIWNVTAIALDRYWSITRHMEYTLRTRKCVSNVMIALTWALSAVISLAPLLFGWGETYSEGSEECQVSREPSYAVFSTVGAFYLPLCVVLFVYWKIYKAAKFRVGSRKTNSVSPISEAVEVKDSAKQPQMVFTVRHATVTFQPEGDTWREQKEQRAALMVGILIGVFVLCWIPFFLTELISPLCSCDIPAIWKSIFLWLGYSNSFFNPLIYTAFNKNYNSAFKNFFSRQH

Substance-K receptor = target: T2, Substance-K receptor (Homo sapiens, UniProt P21452)
T2 sequence (P21452 whole entry): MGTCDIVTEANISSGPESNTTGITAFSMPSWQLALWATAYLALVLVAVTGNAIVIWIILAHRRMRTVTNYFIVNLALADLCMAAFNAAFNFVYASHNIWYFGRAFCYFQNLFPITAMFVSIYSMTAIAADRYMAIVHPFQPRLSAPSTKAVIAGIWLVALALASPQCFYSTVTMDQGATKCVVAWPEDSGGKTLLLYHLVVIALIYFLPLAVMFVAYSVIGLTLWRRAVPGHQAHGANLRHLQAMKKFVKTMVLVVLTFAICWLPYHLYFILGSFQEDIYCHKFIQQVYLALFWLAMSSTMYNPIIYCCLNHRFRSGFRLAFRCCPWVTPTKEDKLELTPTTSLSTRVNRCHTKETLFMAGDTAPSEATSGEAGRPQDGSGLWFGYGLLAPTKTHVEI

[5] = target: T3, Peroxisome proliferator-activated receptor alpha (Homo sapiens, UniProt Q07869); format: functional
T3 sequence (Q07869 whole entry): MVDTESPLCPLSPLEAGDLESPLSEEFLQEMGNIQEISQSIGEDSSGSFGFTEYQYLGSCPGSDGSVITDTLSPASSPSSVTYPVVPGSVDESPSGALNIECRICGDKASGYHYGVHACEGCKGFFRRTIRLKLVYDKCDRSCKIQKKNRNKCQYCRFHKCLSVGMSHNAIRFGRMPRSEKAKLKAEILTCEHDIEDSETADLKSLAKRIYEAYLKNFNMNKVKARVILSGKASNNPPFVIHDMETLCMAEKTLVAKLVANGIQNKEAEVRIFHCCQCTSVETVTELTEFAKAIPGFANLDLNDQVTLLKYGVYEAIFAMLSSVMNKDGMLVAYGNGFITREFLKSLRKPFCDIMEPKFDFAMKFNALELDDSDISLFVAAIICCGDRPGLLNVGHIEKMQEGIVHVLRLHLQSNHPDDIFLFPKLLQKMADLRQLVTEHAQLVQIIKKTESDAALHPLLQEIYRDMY

[6] = target: T4, Nuclear receptor subfamily 1 group I member 3 (Homo sapiens, UniProt Q14994); format: functional
T4 sequence (Q14994 whole entry): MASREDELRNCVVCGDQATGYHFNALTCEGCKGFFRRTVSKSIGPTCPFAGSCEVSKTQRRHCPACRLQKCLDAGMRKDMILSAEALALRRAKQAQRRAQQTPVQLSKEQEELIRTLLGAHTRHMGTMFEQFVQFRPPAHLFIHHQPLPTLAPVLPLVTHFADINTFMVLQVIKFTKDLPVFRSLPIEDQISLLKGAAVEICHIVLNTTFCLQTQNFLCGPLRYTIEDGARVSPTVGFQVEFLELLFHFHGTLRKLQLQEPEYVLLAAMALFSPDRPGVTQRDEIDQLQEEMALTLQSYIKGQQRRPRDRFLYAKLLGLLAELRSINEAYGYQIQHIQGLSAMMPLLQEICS

[7] = target: T5, Retinoic acid receptor alpha (Homo sapiens, UniProt P10276); format: functional, cell-based
T5 sequence (P10276 whole entry): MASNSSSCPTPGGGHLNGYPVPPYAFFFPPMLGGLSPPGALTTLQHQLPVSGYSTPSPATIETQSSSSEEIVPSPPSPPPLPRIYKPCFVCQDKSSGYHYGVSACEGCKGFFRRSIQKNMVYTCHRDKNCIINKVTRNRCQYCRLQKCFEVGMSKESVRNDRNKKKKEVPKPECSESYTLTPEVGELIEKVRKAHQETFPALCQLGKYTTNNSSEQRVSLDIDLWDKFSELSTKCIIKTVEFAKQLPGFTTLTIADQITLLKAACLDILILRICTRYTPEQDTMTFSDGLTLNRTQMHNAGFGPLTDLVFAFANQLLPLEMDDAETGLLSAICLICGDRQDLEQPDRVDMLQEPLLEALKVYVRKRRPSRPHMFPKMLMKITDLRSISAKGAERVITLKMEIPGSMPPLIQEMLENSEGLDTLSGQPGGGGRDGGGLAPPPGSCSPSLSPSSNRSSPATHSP

[8] = target: T6, Oxysterols receptor LXR-beta (Homo sapiens, UniProt P55055); format: functional
T6 sequence (P55055 whole entry): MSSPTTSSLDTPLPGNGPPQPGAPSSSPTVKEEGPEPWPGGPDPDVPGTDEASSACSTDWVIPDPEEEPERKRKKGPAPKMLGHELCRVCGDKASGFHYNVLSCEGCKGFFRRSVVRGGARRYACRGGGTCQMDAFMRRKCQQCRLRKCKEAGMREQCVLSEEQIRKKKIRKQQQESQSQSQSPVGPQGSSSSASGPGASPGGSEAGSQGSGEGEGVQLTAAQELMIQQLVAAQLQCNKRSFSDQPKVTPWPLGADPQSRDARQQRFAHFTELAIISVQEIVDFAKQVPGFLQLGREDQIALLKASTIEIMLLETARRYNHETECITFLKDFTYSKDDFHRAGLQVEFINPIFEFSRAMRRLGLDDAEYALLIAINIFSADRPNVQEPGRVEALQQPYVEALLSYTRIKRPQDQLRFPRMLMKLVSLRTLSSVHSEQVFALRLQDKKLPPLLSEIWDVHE

[9] = target: T3, Peroxisome proliferator-activated receptor alpha; format: functional; remark: listed apart in the source
[10] = target: T5, Retinoic acid receptor alpha; format: functional, cell-based; remark: listed apart in the source
Also: assay procedure not described here.

O=C(Nc1cccc2c(=O)cc(-c3nnn[nH]3)oc12)c1ccc(OCCCCc2ccccc2)cc1
AC50 [1]: 13.3 µM

CC(C)N(CCCCOCC(=O)NS(C)(=O)=O)c1cnc(-c2ccccc2)c(-c2ccccc2)n1 [SELEXIPAG]
AC50 [2]: > 30 µM

CC1(C)O[C@@H]2[C@@H](CO[C@@]3(COS(N)(=O)=O)OC(C)(C)O[C@@H]23)O1 [TOPIRAMATE]
AC50 [3]: > 10 µM

Cc1cnc(NC(=O)C2=C(O)c3ccccc3S(=O)(=O)N2C)s1 [MELOXICAM]
AC50 [3]: > 10 µM
AC50 [4]: > 10 µM
AC50 (Substance-K receptor): > 10 µM

CN(C)c1cc(CNCC(C)(C)C)c(O)c2c1C[C@H]1C[C@H]3[C@H](N(C)C)C(O)=C(C(N)=O)C(=O)[C@@]3(O)C(O)=C1C2=O [OMADACYCLINE]
AC50 [1]: > 30 µM

CNC(=O)c1cc(Oc2ccc(NC(=O)Nc3ccc(Cl)c(C(F)(F)F)c3)c(F)c2)ccn1 [REGORAFENIB]
AC50 [1]: > 30 µM
AC50 [5]: > 30 µM
AC50 [6]: 24 µM
AC50 [7]: > 30 µM
AC50 [8]: > 30 µM
AC50 [9]: > 30 µM
AC50 [10]: > 30 µM

COC(=O)[C@H](c1ccccc1Cl)N1CCc2sccc2C1 [CLOPIDOGREL]
AC50 [4]: > 10 µM
AC50 (Substance-K receptor): > 10 µM

Nc1nc(O)c2ncn(COC(CO)CO)c2n1 [GANCICLOVIR]
AC50 [2]: > 30 µM

Cc1cc(CC(=O)O)n(C)c1C(=O)c1ccc(Cl)cc1 [ZOMEPIRAC]
AC50 [2]: > 30 µM

CN1CCN(CCCN2c3ccccc3Sc3ccc(S(=O)(=O)N(C)C)cc32)CC1 [THIOPROPERAZINE]
AC50 [1]: 0.003 µM

CCC(=O)O[C@@H](O[P@](=O)(CCCCc1ccccc1)CC(=O)N1C[C@H](C2CCCCC2)C[C@H]1C(=O)O)C(C)C [FOSINOPRIL]
AC50 [1]: > 30 µM

CCOc1cc(CC(=O)N[C@@H](CC(C)C)c2ccccc2N2CCCCC2)ccc1C(=O)O [REPAGLINIDE]
AC50 [5]: > 30 µM
AC50 [6]: 5 µM
AC50 [7]: > 30 µM
AC50 [8]: > 30 µM
AC50 [9]: > 30 µM
AC50 [10]: > 30 µM

CC(/C=C1\SC(=S)N(CC(=O)O)C1=O)=C\c1ccccc1
AC50 [5]: > 30 µM
AC50 [6]: 3.6 µM
AC50 [7]: > 30 µM
AC50 [8]: > 30 µM
AC50 [9]: > 30 µM
AC50 [10]: > 30 µM
AC50 [2]: > 30 µM

CC1(C)S[C@@H]2[C@H](NC(=O)[C@H](N)c3ccc(O)cc3)C(=O)N2[C@H]1C(=O)O [AMOXICILLIN]
AC50 [5]: > 30 µM
AC50 [6]: 15 µM
AC50 [3]: > 10 µM
AC50 [7]: > 30 µM
AC50 [8]: > 30 µM
AC50 [9]: > 30 µM
AC50 [10]: > 30 µM
AC50 [4]: > 10 µM
AC50 (Substance-K receptor): > 10 µM

CNC[C@H](O)c1cccc(O)c1 [PHENYLEPHRINE]
AC50 [3]: > 10 µM

CCCCNc1ccc(C(=O)OCCN(C)C)cc1 [TETRACAINE]
AC50 [3]: > 10 µM
AC50 [4]: > 10 µM
AC50 (Substance-K receptor): > 10 µM
